In PubChem BioAssay (NCI):
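Values below derive from 48-hour exposures of cells grown in 96-well plates, with endpoints linearly interpolated between the two concentrations bracketing the appropriate inhibition level. TGI denotes the concentration required for complete inhibition of growth.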

Key:
Test in all cases: inhibition of tumour cell growth, NCI panel, 48 h
SF-268 CNS = tested on: SF-268 CNS
LOX IMVI melanoma = tested on: LOX IMVI melanoma
HT29 colon = tested on: HT29 colon
K-562 leukemia = tested on: K-562 leukemia
COLO 205 colon = tested on: COLO 205 colon
HL-60(TB) leukemia = tested on: HL-60(TB) leukemia
HCT-116 colon = tested on: HCT-116 colon
HOP-62 NSCLC = tested on: HOP-62 NSCLC
UO-31 renal = tested on: UO-31 renal
OVCAR-5 ovarian = tested on: OVCAR-5 ovarian
MALME-3M melanoma = tested on: MALME-3M melanoma
NCI-H23 lung = tested on: NCI-H23 lung
NCI-H226 lung = tested on: NCI-H226 lung
SN12C renal = tested on: SN12C renal
SK-MEL-2 melanoma = tested on: SK-MEL-2 melanoma
PC-3 prostate = tested on: PC-3 prostate
HOP-92 NSCLC = tested on: HOP-92 NSCLC
BT-549 breast = tested on: BT-549 breast
EKVX NSCLC = tested on: EKVX NSCLC
NCI-H460 lung = tested on: NCI-H460 lung
SNB-75 CNS = tested on: SNB-75 CNS
M14 melanoma = tested on: M14 melanoma
OVCAR-4 ovarian = tested on: OVCAR-4 ovarian
A498 renal = tested on: A498 renal
SF-539 CNS = tested on: SF-539 CNS
OVCAR-3 ovarian = tested on: OVCAR-3 ovarian
MCF7 breast = tested on: MCF7 breast
A549 NSCLC = tested on: A549 NSCLC
U251 CNS = tested on: U251 CNS
SK-OV-3 ovarian = tested on: SK-OV-3 ovarian
MDA-N = tested on: MDA-N
HS 578T breast = tested on: HS 578T breast
SNB-19 CNS = tested on: SNB-19 CNS
SF-295 CNS = tested on: SF-295 CNS
T-47D breast = tested on: T-47D breast
MDA-MB-435 = tested on: MDA-MB-435
UACC-257 melanoma = tested on: UACC-257 melanoma
HCT-15 colon = tested on: HCT-15 colon
SK-MEL-28 melanoma = tested on: SK-MEL-28 melanoma
ACHN renal = tested on: ACHN renal
KM12 colon = tested on: KM12 colon
CAKI-1 renal = tested on: CAKI-1 renal
SR leukemia = tested on: SR leukemia
UACC-62 melanoma = tested on: UACC-62 melanoma
TK-10 renal = tested on: TK-10 renal
SK-MEL-5 melanoma = tested on: SK-MEL-5 melanoma
DU-145 prostate = tested on: DU-145 prostate
HCC-2998 colon = tested on: HCC-2998 colon
RPMI-8226 leukemia = tested on: RPMI-8226 leukemia
OVCAR-8 ovarian = tested on: OVCAR-8 ovarian
CCRF-CEM leukemia = tested on: CCRF-CEM leukemia
NCI-H522 lung = tested on: NCI-H522 lung
SW-620 colon = tested on: SW-620 colon
MOLT-4 leukemia = tested on: MOLT-4 leukemia
IGROV1 ovarian = tested on: IGROV1 ovarian

Measured: TGI

O=C(Nc1cccc2ccccc12)Nn1cnnc1
> 100 µM: all assays above
